Reference: the NIST ThermoML archive (doi:10.1021/acs.jced.5b00806)

Legend:
[1] = wn = mass fraction of the nth substance listed; conditions: 98 kPa, Liquid, Capillary tube (Ostwald / Ubbelohde) method
[2] = Liquid; for mass density: 101.33 kPa, Pycnometric method; for vapor or sublimation pressure: Langmuir
[3] = xn = mol fraction of the nth substance listed; conditions: 98 kPa, Liquid, magnetic suspension balance, x2 = 0.55

CCCCn1cc[n+](C)c1.F[B-](F)(F)F [1-butyl-3-methylimidazolium tetrafluoroborate] + O
kinematic viscosity [m2/s], [1]
Conditions	w2 = 0.0033	w2 = 0.0097	w2 = 0.0181	w2 = 0.0258	w2 = 0.0345	w2 = 0.0488	w2 = 0.0552	w2 = 0.066
303.2 K	5.78e-05	4.53e-05	3.44e-05	2.89e-05	2.26e-05	1.64e-05	1.52e-05	1.39e-05
313.2 K	3.76e-05	3.02e-05	2.37e-05	2.02e-05	1.62e-05	1.2e-05	1.12e-05	1.02e-05
323.2 K	2.59e-05	2.14e-05	1.73e-05	1.48e-05	1.22e-05	9.2e-06	8.6e-06	7.9e-06
333.2 K	1.86e-05	1.54e-05	1.28e-05	1.13e-05	9.4e-06	7.2e-06	6.8e-06	6.2e-06
343.2 K	1.39e-05	1.21e-05	1e-05	8.8e-06	7.5e-06	5.9e-06	5.5e-06	5.1e-06
353.2 K	1.08e-05	9.8e-06	8e-06	7.2e-06	6.2e-06	4.9e-06	4.6e-06	4.2e-06
363.2 K	8.6e-06	7.7e-06	6.5e-06	5.8e-06	5.1e-06	4.1e-06	3.9e-06	3.6e-06

CCOCCOCCOS(=O)(=O)[O-].CCn1cc[n+](C)c1 [1-ethyl-3-methylimidazolium 2-(2-ethoxyethoxy)ethylsulfate] + O
kinematic viscosity [m2/s], [1]
Conditions	w2 = 0.0019	w2 = 0.0085	w2 = 0.0195	w2 = 0.0251	w2 = 0.0353	w2 = 0.0495	w2 = 0.0569	w2 = 0.0663
303.2 K	0.000128	0.000103	7.64e-05	6.69e-05	5.26e-05	4.17e-05	3.84e-05	3.34e-05
313.2 K	7.46e-05	6.17e-05	4.74e-05	4.22e-05	3.38e-05	2.73e-05	2.52e-05	2.24e-05
323.2 K	4.76e-05	4.02e-05	3.17e-05	2.83e-05	2.31e-05	1.92e-05	1.76e-05	1.58e-05
333.2 K	3.23e-05	2.78e-05	2.23e-05	2.02e-05	1.67e-05	1.41e-05	1.29e-05	1.18e-05
343.2 K	2.32e-05	2.02e-05	1.65e-05	1.51e-05	1.26e-05	1.08e-05	9.8e-06	9.1e-06
353.2 K	1.81e-05	1.53e-05	1.26e-05	1.17e-05	9.9e-06	8.5e-06	7.8e-06	7.3e-06
363.2 K	1.34e-05	1.16e-05	1e-05	9.3e-06	7.9e-06	6.9e-06	6.3e-06	5.9e-06

CCOCCOCCOS(=O)(=O)[O-].CCn1cc[n+](C)c1 [1-ethyl-3-methylimidazolium 2-(2-ethoxyethoxy)ethylsulfate]
[2]
Conditions	mass density [kg/m3]	vapor or sublimation pressure [kPa]
293.2 K	1215	–
303.2 K	1207	–
313.2 K	1200	–
323.2 K	1193	–
333.2 K	1185	–
343.2 K	1178	–
353.2 K	1170	–
363.2 K	1164	–
419.7 K	–	3.4e-09
429 K	–	3.8e-09
430.1 K	–	5.6e-09
430.7 K	–	4.9e-09
436.4 K	–	1.3e-08
438.3 K	–	8.7e-09
438.4 K	–	1.1e-08
438.5 K	–	1.1e-08
440.2 K	–	1.4e-08
445.7 K	–	2.6e-08
445.8 K	–	2.5e-08
448.1 K	–	2.1e-08

COP(=O)([O-])OC.Cn1cc[n+](C)c1 [1,3-dimethylimidazolium dimethylphosphate]
[2]
Conditions	mass density [kg/m3]
293.2 K	1260
303.2 K	1253
313.2 K	1246
323.2 K	1239
333.2 K	1232
343.2 K	1225
353.2 K	1218
363.2 K	1211

CCn1cc[n+](C)c1.CS(=O)(=O)[O-] [1-ethyl-3-methylimidazolium methanesulfonate]
[2]
Conditions	mass density [kg/m3]
293.2 K	1244
303.2 K	1237
313.2 K	1230
323.2 K	1223
333.2 K	1217
343.2 K	1212
353.2 K	1205
363.2 K	1198

CCOS(=O)(=O)[O-].CCn1cc[n+](C)c1 [1-ethyl-3-methylimidazolium ethyl sulfate] + O
kinematic viscosity [m2/s], [1]
Conditions	w2 = 0.0038	w2 = 0.009	w2 = 0.0164	w2 = 0.0239	w2 = 0.0359	w2 = 0.0483	w2 = 0.0563	w2 = 0.066
303.2 K	5.5e-05	5.06e-05	4.43e-05	4.03e-05	3.57e-05	3.26e-05	3.13e-05	2.99e-05
313.2 K	3.74e-05	3.56e-05	3.11e-05	2.86e-05	2.51e-05	2.3e-05	2.21e-05	2.11e-05
323.2 K	2.69e-05	2.63e-05	2.34e-05	2.17e-05	1.99e-05	1.69e-05	1.63e-05	1.55e-05
333.2 K	2.01e-05	1.9e-05	1.8e-05	1.67e-05	1.52e-05	1.31e-05	1.24e-05	1.18e-05
343.2 K	1.54e-05	1.49e-05	1.41e-05	1.35e-05	1.21e-05	1.05e-05	9.8e-06	9.3e-06
353.2 K	1.21e-05	1.17e-05	1.13e-05	1.11e-05	1.01e-05	9e-06	8.1e-06	7.6e-06
363.2 K	9.8e-06	9.4e-06	9.1e-06	8.8e-06	8.4e-06	8e-06	7e-06	6.5e-06

CCn1cc[n+](C)c1.CS(=O)(=O)[O-] [1-ethyl-3-methylimidazolium methanesulfonate] + O
[3]
Conditions	binary diffusion coefficient [m2/s]
303.2 K	2.1e-10
313.2 K	3.1e-10
333.2 K	5.35e-10
353.2 K	8.3e-10
373.2 K	1.17e-09

kinematic viscosity [m2/s], [1]
Conditions	w2 = 0.0024	w2 = 0.0028	w2 = 0.01	w2 = 0.0191	w2 = 0.0254	w2 = 0.0323	w2 = 0.0358	w2 = 0.047	w2 = 0.0589	w2 = 0.0615
303.2 K	9.34e-05	9.45e-05	7.58e-05	6.2e-05	5.53e-05	4.69e-05	4.51e-05	3.69e-05	3.06e-05	2.95e-05
313.2 K	5.57e-05	5.64e-05	4.66e-05	3.91e-05	3.5e-05	3.06e-05	2.96e-05	2.48e-05	2.09e-05	2.02e-05
323.2 K	3.74e-05	3.65e-05	3.23e-05	2.65e-05	2.39e-05	2.1e-05	2.09e-05	1.77e-05	1.49e-05	1.46e-05
333.2 K	2.57e-05	–	2.26e-05	–	1.76e-05	–	1.53e-05	1.31e-05	–	1.11e-05
343.2 K	1.86e-05	–	1.66e-05	–	1.32e-05	–	1.16e-05	1.01e-05	–	8.5e-06
353.2 K	1.39e-05	–	1.24e-05	–	1.02e-05	–	9.1e-06	8e-06	–	6.8e-06
363.2 K	1.09e-05	–	9.7e-06	–	8.1e-06	–	7.3e-06	6.5e-06	–	5.6e-06

CCCCn1cc[n+](C)c1.F[B-](F)(F)F [1-butyl-3-methylimidazolium tetrafluoroborate]
[2]
Conditions	vapor or sublimation pressure [kPa]
396.3 K	7.2e-10
403.7 K	9.9e-10
412.1 K	2.3e-09
413.6 K	1.8e-09
415.4 K	2.8e-09
421.6 K	4.3e-09
424.9 K	6.3e-09
437.3 K	1.9e-08
437.6 K	1.5e-08
446.4 K	3.7e-08
447.3 K	4e-08
447.7 K	3.9e-08
457.2 K	8.3e-08
457.5 K	8.7e-08
464.7 K	1.5e-07
465 K	1.7e-07
465.5 K	1.6e-07

COP(=O)([O-])OC.Cn1cc[n+](C)c1 [1,3-dimethylimidazolium dimethylphosphate] + O
kinematic viscosity [m2/s], [1]
Conditions	w2 = 0.0031	w2 = 0.0085	w2 = 0.019	w2 = 0.0237	w2 = 0.0341	w2 = 0.0493	w2 = 0.0587	w2 = 0.0655
303.2 K	0.000137	0.000128	0.000114	0.000107	9.53e-05	7.95e-05	7.22e-05	6.73e-05
313.2 K	7.79e-05	7.35e-05	6.62e-05	6.27e-05	5.63e-05	4.77e-05	4.37e-05	4.09e-05
323.2 K	4.84e-05	4.59e-05	4.18e-05	3.98e-05	3.6e-05	3.09e-05	2.85e-05	2.68e-05
333.2 K	3.22e-05	3.07e-05	2.81e-05	2.69e-05	2.45e-05	2.13e-05	1.97e-05	1.86e-05
343.2 K	2.27e-05	2.17e-05	2e-05	1.92e-05	1.75e-05	1.53e-05	1.43e-05	1.35e-05
353.2 K	1.67e-05	1.6e-05	1.48e-05	1.42e-05	1.31e-05	1.15e-05	1.07e-05	1.02e-05
363.2 K	1.27e-05	1.22e-05	1.17e-05	1.09e-05	1.01e-05	8.9e-06	8.5e-06	8e-06
